The values below come from PubChem BioAssay (NCI).

What all share (assay): NCI tumour cell line growth inhibition, 48 h
Test [1] deals with LOX IMVI melanoma.
Test [2] relates to NCI-H522 lung.
The test system of test [3] is A498 renal.
Test [4] deals with 786-0 renal.
In test [5] the test system is OVCAR-4 ovarian.
In test [6] the test system is NCI/ADR-RES ovarian.
Test [7] has as its system SNB-19 CNS.
The subject of test [8] is SN12C renal.
For test [9], the system named is UACC-257 melanoma.
The subject of test [10] is MALME-3M melanoma.

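Results reflect a 48-hour exposure of cells in 96-well plates to compound at five concentrations. TGI: total growth inhibition.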

Regarding `CC1=CCC(=O)[C@]2(C)C(CC(=O)O)[C@]3(C)C4=C(C)C(c5ccoc5)C[C@@H]4O[C@@H]3[C@H](O)[C@@H]12` (stereo not given in full), the TGI in test [1], in test [2], in test [3], in test [4], in test [5] and in test [6] was more than 100 µM throughout. Also, the TGI in test [7], in [8], in test [9] and in test [10] was more than 100 µM in each case.
On to `COc1nc2ncc([C@@H](O)[C@H](O)CO)nc2c(=O)[nH]1`, for which the TGI in test [1], in test [2], in test [3], in [4], in [5] and in test [6] was more than 100 µM throughout. For the same compound, the TGI in test [7], in [8], in [9] and in [10] was more than 100 µM in each case.
For `Clc1ccc(C2=NNC(c3cccc(Cl)c3)C2)cc1` (stereo not given), the TGI was 33.7 µM in test [1]; 14.4 µM in [2]; 45 µM in test [3]; 92.7 µM in test [4]; more than 100 µM in [5]; 89.9 µM in test [6]. For the same compound, the TGI in test [7] is more than 100 µM; in test [8], 53.2 µM; in [9] it was more than 100 µM; in [10] it was more than 100 µM.
